Drawing on the METLIN SMRT retention time set (Domingo-Almenara et al. 2019), this text covers RP-LC retention time for 58 compounds.

Molecules are shown by their SMILES.

The data set is described as follows: gradient 5% acetonitrile 3 min, to 50% in 2 min, to 85% in 15 min, held 3 min, 100 µL/min. The following applies: column: Zorbax Extend-C18 2.1 x 50 mm; eluents: water / acetonitrile, 0.1% formic acid. A digest of the protocol:
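In both positive and negative ionization mode, a quadrupole time-of-flight mass spectrometer coupled to HPLC analyzed pure standards run in mixtures of ~100 molecules. The Zorbax Extend-C18 column (2.1 × 50 mm, 1.8 μm) was operated at 100 μL/min with water and acetonitrile, each containing 0.1% formic acid. The dead volume was 40 μL and the dwell volume 900 μL. Retention time came from adduct peaks that were computationally picked and individually inspected by hand.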
In turn, `CCCNS(=O)(=O)c1cc(-c2nnc(-c3ccc(OC)c(OC)c3)o2)ccc1C` had an RP-LC retention time of 901 s.
As for `O=C(c1cc(F)cc(F)c1)N1CCC(n2c(-c3ccco3)nc3cccnc32)C1` (stereo not drawn), the figure is 766 s; as for `Cn1ncc2c(N3CCSCC3)nc(C(=O)NCCc3ccncc3)nc21`, 559 s; as for `Cn1c(=O)c(=O)n(C)c2cc(N3CCCCC3)c(NC(=O)C3CCCCC3)cc21`, 940 s.
The value for `COc1cccc(-c2csc(Cc3nc(-c4cccc(C)c4)no3)n2)c1` was 1250 s; that for `CCCCN(CC)C(=O)C1CCCN(c2nc3cccnc3s2)C1` (stereo not drawn) was 914 s; that for `O=C(c1cc(F)ccc1F)N1CCCC2(C1)NC(=O)N(Cc1ccc(Cl)cc1)C2=O` (stereo not drawn) was 844 s.
As for `O=S(=O)(c1ccc(-c2noc(-c3ccccc3Cl)n2)cc1)N1CCCC1`, the figure is 1200 s; as for `O=C(NCCCN1CCOCC1)c1ccc(-c2ccc(N3CCCCC3)nn2)cc1`, 563 s; as for `COc1cc(-c2ccc(F)cc2)nc2ccc(NS(=O)(=O)c3ccccc3)cc12`, 754 s.
For the compound `CCOC(=O)C1CCC(CNC(=O)Nc2ccc(-c3nc(-c4ccc(C)cc4C)co3)cc2)CC1` (stereo not drawn), the RP-LC retention time turned out to be 1240 s.
As to `O=S1(=O)C[C@H](N2CCN(c3ccccn3)CC2)[C@@H](S(=O)(=O)c2cccs2)C1`, the RP-LC retention time turned out to be 586 s.
As for `Cc1nc(-c2ccc(S(=O)(=O)N3CCN(c4ccccn4)CC3)cc2)co1`, the figure is 640 s; as for `Cc1ccccc1NC(=O)C1CCCN(C(=O)c2nn(C)c3c2CN(C(=O)C(C)(C)C)CC3)C1` (stereo not drawn), 802 s.
In turn, `Cc1cc(=O)n(CC(=O)Nc2ccc3c(c2)OCO3)c(N2CCc3ccccc3C2)n1` gave an RP-LC retention time of 742 s.
As for `CCOCC(=O)N1CC(c2nc(-c3cccnc3)no2)C2(CCOCC2)C1` (stereo not drawn), the figure is 622 s; as for `CCOC(=O)c1cnc(SCC(=O)N2CCC(C(N)=O)CC2)nc1N`, 602 s; as for `CCCNC(=O)C(=O)NCC(c1ccc2c(c1)CCCN2C)N1CCCCC1` (stereo not drawn), 598 s.
As for `CCCn1cnc2cc(CNC(=O)c3ccc(C(C)C)cc3)ccc21`, the figure is 690 s.
The value for `COc1ccc2[nH]c(C(=O)N[C@@H](C)C(=O)NCCc3c[nH]c4ccccc34)cc2c1OC` was 769 s.
`Cc1c(-c2ccnc(N3CCN(C)CC3)n2)cnc2nc(-c3ccccc3)nn12` gave an RP-LC retention time of 640 s.
For the compound `CCOC(=O)C1=C(CN2CCN(Cc3ccc4c(c3)OCO4)CC2)NC(=O)NC1c1ccc(C)cc1` (stereo not drawn), the RP-LC retention time turned out to be 585 s.
As for `Cn1c(=O)c(SCC(=O)NCCCc2ccccc2)nc2ccccc21`, the figure is 840 s.
The value for `O=C(c1ccc(-c2cccs2)nc1)N1CCOCC1` was 678 s; that for `COc1ccc(NC(=O)N2CCC(N3CCN(Cc4ccccc4)C3=O)CC2)c(OC)c1` was 796 s.
As for `CC(C)CNC(=O)N1C[C@@H]2CCCN3CCC[C@@H]([C@H]23)[C@H]1CCCC(=O)NCC1CC1`, the figure is 603 s.
As for `N#Cc1cccc(NC(=O)Cc2cn3cc(F)ccc3n2)c1`, the RP-LC retention time was 593 s.
As for `O=C(Nc1ccc(F)cc1)N1CCC(N2CCN(Cc3cccc(F)c3)C(=O)C2=O)CC1`, the figure is 722 s; as for `CCC(=O)NCc1nc2c(n1CC)CN(C(=O)c1ccc(Br)cc1)CC2`, 606 s; as for `Cc1cc2n(n1)CCCN2C(=O)CCC(=O)N1CCC(Cc2ccccc2)CC1`, 818 s.
The value for `CCCCN1C(=O)C(C)(C(=O)Nc2ccc(OC)c(Cl)c2)Oc2cccnc21` (stereo not drawn) was 1080 s; that for `O=C(Cc1cccc(C(F)(F)F)c1)N1CCN(c2nnc3ccccn23)CC1` was 702 s.
Consider `CC(C)c1ccc(-n2c3c(cc(C(=O)N4CCCCC4)c2=O)C(=O)CCC3)cc1`, for which the RP-LC retention time worked out at 884 s.
The value for `CSc1ncccc1C(=O)Nc1cccc(OCc2nnc(-c3ccc(Cl)cc3)o2)c1` was 1010 s.
With `COc1ccc(N2CC(c3noc(-c4cc(C)cc(C)c4)n3)CC2=O)cc1OC` (stereo not drawn), the RP-LC retention time came out at 1010 s.
The value for `CCC1Oc2ccc(S(=O)(=O)N3CCC(C(=O)Nc4cc(C)ccc4C)CC3)cc2NC1=O` (stereo not drawn) was 837 s; that for `COCCN1C(=O)c2ccccc2C(C(=O)Nc2ccccc2OC)C12CCCC2` (stereo not drawn) was 905 s.
Compound `Cc1ccc(CNC(=O)N2CCC(N3CCN(Cc4ccccc4)C(=O)C3=O)CC2)cc1` yielded an RP-LC retention time of 768 s.
Compound `CCS(=O)(=O)N1CC(=O)N(c2ccc(Cl)cc2)C(C)(C(=O)NCc2ccccc2)C1` (stereo not drawn) displayed an RP-LC retention time of 848 s.
As for `O=c1ccc(-c2ccc(F)cc2)nn1Cc1nc(-c2ccc(F)cc2)no1`, the RP-LC retention time was 952 s.
`Cc1cc(NC(=O)C2CCN(C(=O)c3snnc3C)CC2)no1`: the RP-LC retention time worked out at 618 s.
In turn, `CCN(CC)c1nc(NC)nc(-n2cnc(SC)n2)n1` registered an RP-LC retention time of 897 s.
`COc1ccc(CNC(=O)c2c(C)sc3ccn(C)c(=O)c23)c(OC)c1`: the RP-LC retention time amounted to 743 s.
Turning to `Cc1ccc(-c2cn3c(n2)N(C(=O)Cn2ccnc2C)CCC3)cc1`, the RP-LC retention time amounted to 628 s.
With `Cc1cc(N2CCN(C)CC2)nc2ccc(NC(=O)C(C)Oc3ccc(Cl)cc3Cl)cc12` (stereo not drawn), the RP-LC retention time stood at 690 s.
In turn, `CCc1nn2c(CNC(=O)C3CCC3)c(-c3ccccc3)nc2s1` registered an RP-LC retention time of 804 s.
As to `COc1ccc(-c2nnc(-c3ccc(C)c(S(=O)(=O)Nc4ccc(Cl)cn4)c3)o2)cc1OC`, the RP-LC retention time was 918 s.
As for `Cc1cc(C(=O)NCCCN2CCOCC2)c2cc(Br)ccc2n1`, the figure is 583 s; as for `COc1ccccc1/C=C/C(=O)/C=C/c1ccccc1O`, 772 s.
In turn, `Nc1nc(N2CCC3(CC2)OCCO3)ncc1S(=O)(=O)c1ccccc1` returned an RP-LC retention time of 808 s.
As for `Cn1ncc2c(N3CCSCC3)nc(C(=O)N3CCN(Cc4ccccc4)CC3)nc21`, the figure is 600 s.
As for `NC(=O)C1CCN(C(=O)c2ccc(F)cc2)CC1`, the figure is 589 s.
As for `c1ccc2c(c1)CC(N1CCN(c3cccc4c3OCCO4)CC1)C2`, the RP-LC retention time came out at 741 s.
The value for `Cc1ccc(-n2c(=O)n(C)c(=O)c3cc(C(=O)Nc4ccc5c(c4)OCO5)cnc32)cc1` was 907 s; that for `O=C(NCc1cccc2ccccc12)NCC1CCN(C(=O)Oc2ccccc2)CC1` was 866 s; that for `Cn1c(=O)sc2cc(S(=O)(=O)N3CCC(C(=O)N4CCC5(CC4)OCCO5)CC3)ccc21` was 709 s.
Consider `O=C(CN1CCN(Cc2cccc(Cl)c2)C1=O)N1CCN(c2ccccc2)CC1`, for which the RP-LC retention time is 885 s.
`CCCCC(=O)N(Cc1ccc(-c2ccccc2-c2nn[nH]n2)cc1)[C@H](C(=O)O)C(C)C` returned an RP-LC retention time of 865 s.
